Source: patent US9833497B2, “Human originated EGF domain proteins and use of the same” (CHENGDU SOURCEBIO LIMITED-LIABILITY COMPANY, priority 2013, dated 2017)

Legend:
Format in all cases: cell-based
[1] = test system: Citrobacter diversus; test: MIC against Gram-negative bacteria: Citrobacter diversus; conditions: for MIC (μg/mL) C. diversus / MIC against C. diversus: 5×10^5 CFU/mL
Summary of the method: (§1)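 Purified recombinant human EGF domain proteins are tested by broth dilution in LB against a 5×10^5 CFU/mL inoculum, with two-fold serial dilutions run in triplicate. Plates are incubated at 37° C with shaking, and the MIC is read as the lowest protein concentration without growth.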

[2] = test system: Serratia marcescens; test: MIC against Gram-negative bacteria: Serratia marcescens; conditions: for MIC (μg/mL) S. marcescens / MIC against S. marcescens: 5×10^5 CFU/mL
Summary of the method: as §1

[3] = test system: Aeromonas hydrophila; test: MIC against Gram-negative bacteria: Aeromonas hydrophila; conditions: for MIC (μg/mL) A. hydrophila / MIC against A. hydrophila: 5×10^5 CFU/mL
Summary of the method: as §1

[4] = test system: Proteus vulgaris; test: MIC against Gram-negative bacteria: Proteus vulgaris; conditions: for MIC (μg/mL) P. vulgaris / MIC against P. vulgaris: 5×10^5 CFU/mL
Summary of the method: as §1

[5] = test system: Enterobacter cloacae; test: MIC against Gram-negative bacteria: Enterobacter cloacae; conditions: for MIC (μg/mL) E. cloacae / MIC against E. cloacae: 5×10^5 CFU/mL
Summary of the method: as §1

[6] = test system: Klebsiella pneumonia; test: MIC against Gram-negative bacteria: Klebsiella pneumonia; conditions: for MIC (μg/mL) K. pneumonia / MIC against K. pneumonia: 5×10^5 CFU/mL
Summary of the method: as §1

[7] = test system: E. coli DH5α; test: Antibacterial activity: MIC and growth curve against E. coli DH5α in 96-well plate; conditions: minimal inhibitory concentration against E. coli DH5α; 96-well plate, 5×10^5 CFU/mL, 37° C., judged after 8 h
Summary of the method: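 MIC taken as lowest protein level with no bacterial growth, tracked by A600 every 30 min during 37 °C, 175 rpm culture. Two-fold protein series 50-12.5 μg/mL final, triplicate wells, against 5×10^5 CFU/mL of LB-washed mid-log cells.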

[8] = test system: Moraxella catarrhalis; test: MIC against Gram-negative bacteria: Moraxella catarrhalis; conditions: for MIC (μg/mL) M. catarrhalis / MIC against M. catarrhalis: 5×10^5 CFU/mL
Summary of the method: as §1

[9] = test system: Pseudomonas aeruginosa; test: MIC against Gram-negative bacteria: Pseudomonas aeruginosa; conditions: for MIC (μg/mL) P. aeruginosa / MIC against P. aeruginosa: 5×10^5 CFU/mL
Summary of the method: as §1

[10] = test system: E. coli BL21; test: MIC against Gram-negative bacteria: E. coli BL21; conditions: for MIC / MIC (μg/mL) E. coli BL21: E. coli BL21; for MIC (μg/mL) E. coli BL21 / MIC against E. coli BL21: 5×10^5 CFU/mL
Summary of the method: as §1

[11] = test system: Proteus mirabilis; test: MIC against Gram-negative bacteria: Proteus mirabilis; conditions: for MIC (μg/mL) P. mirabilis / MIC against P. mirabilis: 5×10^5 CFU/mL
Summary of the method: as §1

[12] = C. diversus, 10 h cultivation at 37° C.
[13] = S. marcescens, 10 h cultivation at 37° C.
[14] = A. hydrophila, 10 h cultivation at 37° C.
[15] = P. vulgaris, 10 h cultivation at 37° C.
[16] = E. cloacae, 10 h cultivation at 37° C.
[17] = K. pneumonia, 10 h cultivation at 37° C.
[18] = M. catarrhalis, 10 h cultivation at 37° C.
[19] = P. aeruginosa, 10 h cultivation at 37° C.
[20] = P. mirabilis, 10 h cultivation at 37° C.

| Substance | MIC [1, 12] [µg/mL] | MIC [2, 13] [µg/mL] | MIC [3, 14] [µg/mL] | MIC [4, 15] [µg/mL] | MIC [5, 16] [µg/mL] | MIC [6, 17] [µg/mL] | MIC [7] [µg/mL] | MIC [8, 18] [µg/mL] | MIC [9, 19] [µg/mL] | MIC ([10]; 10 h cultivation at 37° C.) [µg/mL] | MIC [11, 20] [µg/mL] | MIC against C. diversus ([1]; 96-well plate, 37° C., 10 h) [µg/mL] | MIC against S. marcescens ([2]; 96-well plate, 37° C., 10 h) [µg/mL] | MIC against A. hydrophila ([3]; 96-well plate, 37° C., 10 h) [µg/mL] | MIC against P. vulgaris ([4]; 96-well plate, 37° C., 10 h) [µg/mL] | MIC against E. cloacae ([5]; 96-well plate, 37° C., 10 h) [µg/mL] | MIC against K. pneumonia ([6]; 96-well plate, 37° C., 10 h) [µg/mL] | MIC against M. catarrhalis ([8]; 96-well plate, 37° C., 10 h) [µg/mL] | MIC against P. aeruginosa ([9]; 96-well plate, 37° C., 10 h) [µg/mL] | MIC against E. coli BL21 ([10]; 96-well plate, 37° C., 10 h) [µg/mL] | further results |
| --- | --- | --- | --- | --- | --- | --- | --- | --- | --- | --- | --- | --- | --- | --- | --- | --- | --- | --- | --- | --- | --- |
| PRT982 (VLSPCESQPCQHGGQCRPSPGPGGGLTFTCHCAQPFWGPRCE; listed as Homo sapiens) | 50 | 50 | 25 | 12.5 | 12.5 | 50 | 50 | 12.5 | 12.5 | 25 | 50 | – | – | – | – | – | – | – | – | – | – |
| PRT1496 (EISKCPQPCRNGGKCIGKSKCKCSKGYQGDLCS; listed as Homo sapiens) | – | – | – | – | – | – | 50 | – | – | – | – | – | – | – | – | – | – | – | – | – | MIC (μg/mL) C. diversus ([1]; Citrobacter diversus, 96-well plate, 37° C., 10 h): 50 µg/mL; MIC (μg/mL) S. marcescens ([2]; Serratia marcescens, 96-well plate, 37° C., 10 h): 25 µg/mL; MIC (μg/mL) A. hydrophila ([3]; Aeromonas hydrophila, 96-well plate, 37° C., 10 h): 50 µg/mL; MIC (μg/mL) P. vulgaris ([4]; Proteus vulgaris, 96-well plate, 37° C., 10 h): 100 µg/mL; MIC (μg/mL) E. cloacae ([5]; Enterobacter cloacae, 96-well plate, 37° C., 10 h): 100 µg/mL; MIC (μg/mL) K. pneumonia ([6]; Klebsiella pneumonia, 96-well plate, 37° C., 10 h): 12.5 µg/mL; MIC (μg/mL) M. catarrhalis ([8]; Moraxella catarrhalis, 96-well plate, 37° C., 10 h): 12.5 µg/mL; MIC (μg/mL) P. aeruginosa ([9]; Pseudomonas aeruginosa, 96-well plate, 37° C., 10 h): 12.5 µg/mL; MIC (μg/mL) E. coli BL21 ([10]; 96-well plate, 37° C., 10 h): 25 µg/mL; MIC (μg/mL) P. mirabilis ([11]; Proteus mirabilis, 96-well plate, 37° C., 10 h): 50 µg/mL |
| PRT801 (FGYGCQQLCECMNNSTCDHVTGTCYCSPGFKGIRCD; listed as Homo sapiens) | – | – | – | – | – | – | 25 | – | – | – | – | – | – | – | – | – | – | – | – | – | MIC (μg/mL) C. diversus [1, 12]: 12.5 µg/mL; MIC (μg/mL) S. marcescens [2, 13]: 12.5 µg/mL; MIC (μg/mL) A. hydrophila [3, 14]: 25 µg/mL; MIC (μg/mL) P. vulgaris [4, 15]: 12.5 µg/mL; MIC (μg/mL) E. cloacae [5, 16]: 12.5 µg/mL; MIC (μg/mL) K. pneumonia [6, 17]: 25 µg/mL; MIC (μg/mL) M. catarrhalis [8, 18]: 12.5 µg/mL; MIC (μg/mL) P. aeruginosa [9, 19]: 50 µg/mL; MIC (μg/mL) E. coli BL21 ([10]; 10 h cultivation at 37° C.): 12.5 µg/mL; MIC (μg/mL) P. mirabilis [11, 20]: 12.5 µg/mL |
| PRT996 (DIDECRSSPCANGGQCQDQPGAFHCKCLPGFEGPRCQ; listed as Homo sapiens) | 12.5 | 12.5 | 100 | 25 | 12.5 | 12.5 | 25 | 25 | 25 | 12.5 | 12.5 | – | – | – | – | – | – | – | – | – | – |
| PRT445 (DVNECELYGQEGRPRLCMHACVNTPGSYRCTCPGGYRTLADGKSCE; listed as Homo sapiens) | – | – | – | – | – | – | 50 | – | – | – | – | 50 | 12.5 | 25 | 12.5 | 12.5 | 25 | 12.5 | 50 | 12.5 | MIC against P. mirabilis ([11]; 96-well plate, 37° C., 10 h): 12.5 µg/mL |
| PRT476 (VVPVCRPNPCQNGATCSRHKRRSKFTCACPDQFKGKFCE; listed as Homo sapiens) | – | – | – | – | – | – | 12.5 | – | – | – | – | 50 | 50 | 12.5 | 12.5 | 50 | 12.5 | 25 | 50 | 12.5 | MIC against P. mirabilis ([11]; 96-well plate, 37° C., 10 h): 25 µg/mL |
